Patent US20220096511A1, “ANTIFUNGAL AGENTS WITH IMPROVED WATER SOLUBILITY” (priority 2019, published 2022)
In brackets after ≈: the same amount, converted by molar mass. Read-outs that look alike come from different tables or passages of the source.

Columns and labels:
Aspergillus niger = test: Minimum inhibitory concentration (MIC) testing, diffusion disc assay; assay type: cell-based; settings: for MIC: Aspergillus niger, read-out: Inhibition of Aspergillus niger (MIC)
Method: (§1) Minimum inhibitory concentration (MIC) testing was determined for nystatin ethanol amide along with comparative antifungal agents.
(§2) Nystatin (Solid) and amphotericin were dissolved in DMF in 1 mg/mL. Econazole nitrate and Nystatin ethanol amide (salt) were dissolved in PBS to achieve 1 mg/mL.
(§3) Antibiotic medium 19 was sterilized in autoclave, after sterilization when the temperature lowered to 45° C. and 1 mL from spore suspension was added. 8 mL from this mixture dispensed to each petri dish.
(§4) On each dish 6 sterile diffusion paper disc were placed, 10 μL from each antibiotic were applied in 10, 15, 20, 25, 30, 35 μg/mL concentrations. Where MIC concentrations were below 10, lower concentrations were used: 2, 5, 7.5 μg/mL
(§5) The petri dishes were incubated overnight at 30° C. The MIC were determined as the lower concentration that inhibition could be visualized.
(§6) Observations. In this diffusion disc assay we measured the minimal concentration applied by each compound needed to inhibit the growth of C. albicans and A. niger. […] Amphotericin B inhibit the growth of C. albicans (16 μg/mL) similarly to Nystatin and Nystatin water soluble.

Candida albicans = test: as above; assay type: cell-based; settings: for Inhibition of Candida albicans (MIC): diffusion paper disc, overnight at 30° C., average of three experiments
Method: as §1, §2, §3, §4, §5, §6

Endotoxin testing (LAL) = settings: standard methods
Method: Endotoxin testing (LAL) was performed using standard methods and found to be <30 Eu/mg.

hep2 cell line = test: Toxicity: viability of hep2 cell line after incubation with the compound; assay type: cell-based; settings: compared with nystatin
Method: Toxicity: Toxicity was tested with hep2 cell line by checking their viability after incubation with the compound. The amount of the compound that corresponds to 50% cell viability is the maximum amount of compound that can be apply on to cell culture.

microorganisms = test: Potency testing, cylinder plate assay, method USP <81>; assay type: cell-based; settings: for 1 mg
Excerpt: The terms “antifungal activity” or “potency,” these terms being used interchangeably, refer to the inhibitory effect of an antifungal agent on microorganisms under suitable conditions as measured using a standard analytical method, such as the methods established by the United States Pharmacopeial Convention (USP).
Potency testing is done using a cylinder plate assay using the methods described in U.S. Pharmacopeia, e.g., Pharmacopeial Forum, Vol. 36(6) [November-December 2010] <81> Antibiotics—Microbial Assays, USP 32 page 86 ff.
FIG. 5 is a photo showing the results of potency testing according to method USP/81 of the nystatin ethanol amide product.

[1] = diffusion paper disc, overnight at 30° C., average of three experiments

Compound | Inhibition of Aspergillus niger (MIC) (Aspergillus niger; [1]) | Inhibition of Candida albicans (MIC) (Candida albicans) | also measured
Nystatin Methyl ester | No inhibition | 30 µg/mL | Inhibition of Aspergillus niger (MIC) (Aspergillus niger; diffusion paper disc, overnight at 30° C., average of three experiments, listed as Nystatin methyl ester): no observed inhibition
C[C@@H]1[C@H](O)[C@@H](C)/C=C/C=C/C=C/C=C/C=C/C=C/C=C/[C@H](O[C@@H]2O[C@H](C)[C@@H](O)[C@H](N)[C@@H]2O)C[C@@H]2O[C@](O)(C[C@@H](O)C[C@@H](O)[C@H](O)CC[C@@H](O)C[C@@H](O)CC(=O)O[C@H]1C)C[C@H](O)[C@H]2C(=O)O [Amphotericin, amphotericin B] |  |  | MIC (Aspergillus niger; [1]): 31.5 µg/mL (≈ 34.1 µM)
Polymixin B | No inhibition | No inhibition | 
Clc1ccc(COC(Cn2ccnc2)c2ccc(Cl)cc2Cl)cc1 (stereo not drawn) [Econazole, Econazole nitrate] | No inhibition | No inhibition | 
C[C@@H]1[C@H](O)[C@@H](C)/C=C/C=C/CC/C=C/C=C/C=C/C=C/[C@H](O[C@@H]2O[C@H](C)[C@@H](O)[C@H](N)[C@@H]2O)C[C@@H]2O[C@](O)(C[C@@H](O)[C@H](O)CC[C@@H](O)C[C@@H](O)C[C@@H](O)CC(=O)O[C@H]1C)C[C@H](O)[C@H]2C(=O)NCCO [Nystatin ethanol amide] |  |  | MIC (Aspergillus niger): 23.6 µg/mL (≈ 24.4 µM); MIC (Candida albicans; Candida albicans, read-out: Inhibition of Candida albicans (MIC)): 15.7 µg/mL (≈ 16.2 µM); Endotoxin (LAL) (Endotoxin testing (LAL)): < 30 Eu/mg; Toxicity (amount of compound corresponding to 50% cell viability) (hep2 cell line): the same or better than the unsalable nystatin; potency (microorganisms): 5500-6500 U
C[C@@H]1[C@H](O)[C@@H](C)/C=C/C=C/CC/C=C/C=C/C=C/C=C/C(O[C@H]2O[C@H](C)[C@@H](O)[C@H](N)[C@@H]2O)CC2O[C@](O)(CC(O)C(O)CCC(O)CC(O)CC(O)CC(=O)O[C@H]1C)CC(O)C2C(=O)O (stereo partly drawn) [Nystatin] | 22.5 µg/mL | 14 µg/mL | 
